# Experimental data published in PubChem BioAssay (NCI).
#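 48-hour exposure; five concentrations; linearly interpolated endpoints. GI50 = concentration required for 50% inhibition of growth. The concentration for full growth arrest is given as TGI.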
# Assays:
# Assay in all cases: DTP human tumour cell line panel, 48 h
# ACHN renal = test system: ACHN renal
# K-562 leukemia = test system: K-562 leukemia
# MALME-3M melanoma = test system: MALME-3M melanoma
# NCI-H460 lung = test system: NCI-H460 lung
# NCI-H522 lung = test system: NCI-H522 lung
# SN12C renal = test system: SN12C renal
# SNB-75 CNS = test system: SNB-75 CNS
# SW-620 colon = test system: SW-620 colon
# HOP-92 NSCLC = test system: HOP-92 NSCLC
# U251 CNS = test system: U251 CNS
compound,measurement,setting,value
Cn1cc(C(=O)C[n+]2ccccc2)c2ccccc21,TGI,ACHN renal,> 100 µM
same,TGI,K-562 leukemia,> 100 µM
same,TGI,MALME-3M melanoma,> 100 µM
same,TGI,NCI-H460 lung,> 100 µM
same,TGI,NCI-H522 lung,> 100 µM
same,TGI,SN12C renal,> 100 µM
same,TGI,SNB-75 CNS,> 100 µM
same,TGI,SW-620 colon,> 100 µM
CN(C)CC/[N+]([O-])=C(/c1ccccc1)C12CC3CC(CC(C3)C1)C2,TGI,ACHN renal,29.8 µM
same,TGI,HOP-92 NSCLC,28.8 µM
same,TGI,K-562 leukemia,30.8 µM
same,TGI,MALME-3M melanoma,55.2 µM
same,TGI,NCI-H460 lung,35.1 µM
same,TGI,NCI-H522 lung,29.2 µM
same,TGI,SN12C renal,31.9 µM
same,TGI,SNB-75 CNS,24.7 µM
same,TGI,U251 CNS,29.7 µM
CC(=O)C1=C(O)CC2CC3c4[nH]c5ccccc5c4CCN3CC2C1 (centres undefined),TGI,ACHN renal,> 100 µM
same,TGI,K-562 leukemia,> 100 µM
same,TGI,MALME-3M melanoma,> 100 µM
same,TGI,NCI-H460 lung,> 100 µM
same,TGI,NCI-H522 lung,> 100 µM
same,TGI,SN12C renal,> 100 µM
same,TGI,SNB-75 CNS,> 100 µM
same,TGI,SW-620 colon,> 100 µM
same,TGI,U251 CNS,> 100 µM
CC(C)=CC1=C2C3=C(C(=O)C4(O)Oc5c(C)c6c7c(c5OC24C)[C@@H](C)CC[C@@H]7[C@@H](C)C[C@H]6C=C(C)C)C(C)CCC3C(C)C1 (some centres undefined),GI50,ACHN renal,> 100 µM
same,TGI,ACHN renal,> 100 µM
same,GI50,K-562 leukemia,> 100 µM
same,TGI,K-562 leukemia,> 100 µM
same,GI50,MALME-3M melanoma,> 100 µM
same,TGI,MALME-3M melanoma,> 100 µM
same,GI50,NCI-H460 lung,> 100 µM
same,TGI,NCI-H460 lung,> 100 µM
same,GI50,NCI-H522 lung,> 100 µM
same,TGI,NCI-H522 lung,> 100 µM
same,GI50,SN12C renal,> 100 µM
same,TGI,SN12C renal,> 100 µM
same,GI50,SNB-75 CNS,> 100 µM
same,TGI,SNB-75 CNS,> 100 µM
same,GI50,SW-620 colon,> 100 µM
same,TGI,SW-620 colon,> 100 µM
same,GI50,U251 CNS,> 100 µM
same,TGI,U251 CNS,> 100 µM
OCC#Cc1ccccc1C#CCCCCCC#Cc1ccccc1C#CCO,GI50,ACHN renal,27.1 µM
same,TGI,ACHN renal,54 µM
same,GI50,HOP-92 NSCLC,17.6 µM
same,TGI,HOP-92 NSCLC,33.3 µM
same,GI50,K-562 leukemia,22.4 µM
same,TGI,K-562 leukemia,57.7 µM
same,GI50,MALME-3M melanoma,20.7 µM
same,TGI,MALME-3M melanoma,52.6 µM
same,GI50,NCI-H460 lung,17.4 µM
same,TGI,NCI-H460 lung,34 µM
same,GI50,NCI-H522 lung,14.6 µM
same,TGI,NCI-H522 lung,29.6 µM
same,GI50,SN12C renal,19.2 µM
same,TGI,SN12C renal,33.6 µM
same,GI50,SW-620 colon,21.9 µM
same,TGI,SW-620 colon,43.3 µM
same,GI50,U251 CNS,20.9 µM
same,TGI,U251 CNS,36 µM
CSc1nc(SC)c2c(CO)c(Br)n(Cc3ccccc3)c2n1,TGI,ACHN renal,44.7 µM
same,TGI,HOP-92 NSCLC,41.8 µM
same,TGI,MALME-3M melanoma,> 100 µM
same,TGI,NCI-H460 lung,30.5 µM
same,TGI,NCI-H522 lung,68.8 µM
same,TGI,SN12C renal,> 100 µM
same,TGI,SNB-75 CNS,29.9 µM
same,TGI,SW-620 colon,> 100 µM
same,TGI,U251 CNS,26.3 µM
CC12CCC(Br)C(C)(C)C1CC=C1C(=O)OCC1O2 (centres undefined),TGI,ACHN renal,26.2 µM
same,TGI,HOP-92 NSCLC,34.1 µM
same,TGI,K-562 leukemia,> 100 µM
same,TGI,NCI-H460 lung,36.2 µM
same,TGI,NCI-H522 lung,11.7 µM
same,TGI,SN12C renal,> 55.9 µM
same,TGI,SNB-75 CNS,34.7 µM
same,TGI,SW-620 colon,32.8 µM
same,TGI,U251 CNS,23.2 µM
Cc1cc2c(C)nn(Cc3ccc(Cl)cc3)c2c(C#N)c1C,TGI,ACHN renal,> 100 µM
same,TGI,HOP-92 NSCLC,95.1 µM
same,TGI,MALME-3M melanoma,> 100 µM
same,TGI,SN12C renal,> 100 µM
same,TGI,SW-620 colon,> 100 µM
same,TGI,U251 CNS,> 100 µM
Clc1ccc(C(n2cc(Br)cn2)n2cc(Br)cn2)cc1,TGI,ACHN renal,27.6 µM
same,TGI,HOP-92 NSCLC,30.6 µM
same,TGI,K-562 leukemia,53.6 µM
same,TGI,MALME-3M melanoma,31.7 µM
same,TGI,NCI-H460 lung,33.7 µM
same,TGI,NCI-H522 lung,27.7 µM
same,TGI,SN12C renal,32.3 µM
same,TGI,SW-620 colon,34.6 µM
same,TGI,U251 CNS,30.8 µM
CCOC(=O)c1c2c(n3ccccc13)C(=O)c1ncccc1C2=O,GI50,ACHN renal,0.0343 µM
same,TGI,ACHN renal,6.24 µM
same,GI50,HOP-92 NSCLC,0.279 µM
same,TGI,HOP-92 NSCLC,28.9 µM
same,GI50,K-562 leukemia,0.0745 µM
same,TGI,K-562 leukemia,> 100 µM
same,GI50,MALME-3M melanoma,0.0561 µM
same,TGI,MALME-3M melanoma,4.56 µM
same,GI50,NCI-H522 lung,0.419 µM
same,TGI,NCI-H522 lung,3.72 µM
same,GI50,SN12C renal,0.0348 µM
same,TGI,SN12C renal,5.85 µM
same,GI50,SNB-75 CNS,0.818 µM
same,TGI,SNB-75 CNS,13 µM
same,GI50,U251 CNS,0.0329 µM
same,TGI,U251 CNS,1.96 µM
O=c1c2cc(Cl)ccc2sc2cccc(Cl)c12,TGI,ACHN renal,> 100 µM
same,TGI,HOP-92 NSCLC,> 100 µM
same,TGI,K-562 leukemia,> 100 µM
same,TGI,NCI-H460 lung,> 100 µM
same,TGI,NCI-H522 lung,> 100 µM
same,TGI,SN12C renal,> 100 µM
same,TGI,SW-620 colon,> 100 µM
same,TGI,U251 CNS,> 100 µM
CN1C(=O)C2C(C1=O)C1(O)c3ccccc3C2(N)c2ccccc21 (centres undefined),TGI,ACHN renal,> 100 µM
same,TGI,HOP-92 NSCLC,> 100 µM
same,TGI,K-562 leukemia,> 100 µM
same,TGI,MALME-3M melanoma,> 100 µM
same,TGI,NCI-H460 lung,> 100 µM
same,TGI,SN12C renal,> 100 µM
same,TGI,SNB-75 CNS,> 100 µM
same,TGI,SW-620 colon,> 100 µM
same,TGI,U251 CNS,> 100 µM
COc1ccc(C2ON(c3cccc(C)n3)CC=C2C)cc1 (centres undefined),TGI,ACHN renal,> 100 µM
same,TGI,K-562 leukemia,> 100 µM
same,TGI,MALME-3M melanoma,> 100 µM
same,TGI,NCI-H460 lung,> 100 µM
same,TGI,NCI-H522 lung,54.8 µM
same,TGI,SN12C renal,> 100 µM
same,TGI,SNB-75 CNS,> 100 µM
same,TGI,SW-620 colon,> 100 µM
same,TGI,U251 CNS,> 100 µM
Cc1ccc(Cl)cc1NC(=O)c1sc2nc3c(cc2c1N)C(=O)CCC3,GI50,ACHN renal,50.4 µM
same,TGI,ACHN renal,> 100 µM
same,GI50,HOP-92 NSCLC,> 100 µM
same,TGI,HOP-92 NSCLC,> 100 µM
same,GI50,K-562 leukemia,3.48 µM
same,TGI,K-562 leukemia,> 100 µM
same,GI50,NCI-H460 lung,3.73 µM
same,TGI,NCI-H460 lung,> 100 µM
same,GI50,NCI-H522 lung,2.17 µM
same,TGI,NCI-H522 lung,4.95 µM
same,GI50,SNB-75 CNS,4.1 µM
same,TGI,SNB-75 CNS,> 100 µM
same,GI50,SW-620 colon,3.68 µM
same,TGI,SW-620 colon,> 100 µM
same,GI50,U251 CNS,4.45 µM
same,TGI,U251 CNS,> 100 µM
COc1ccccc1NC(=O)CC(=O)N/N=C/c1ccc(N(CCC#N)S(=O)(=O)c2ccccc2)cc1,TGI,ACHN renal,> 100 µM
same,TGI,HOP-92 NSCLC,> 100 µM
same,TGI,K-562 leukemia,> 100 µM
same,TGI,MALME-3M melanoma,> 100 µM
same,TGI,NCI-H460 lung,> 100 µM
same,TGI,NCI-H522 lung,> 100 µM
same,TGI,SNB-75 CNS,> 100 µM
same,TGI,SW-620 colon,> 100 µM
same,TGI,U251 CNS,> 100 µM
CCCSS[C@H]1NC(=O)[C@H]1NC(=O)COc1ccccc1,TGI,ACHN renal,30.2 µM
same,TGI,HOP-92 NSCLC,24.4 µM
same,TGI,K-562 leukemia,28.6 µM
same,TGI,MALME-3M melanoma,26.9 µM
same,TGI,NCI-H460 lung,31.4 µM
same,TGI,SN12C renal,29.8 µM
same,TGI,SNB-75 CNS,44 µM
same,TGI,SW-620 colon,18.2 µM
same,TGI,U251 CNS,31.8 µM
CCN(CC)c1ccc(N=Nc2ccc(-c3nc4ccc[n+](C)c4o3)cc2)cc1,TGI,HOP-92 NSCLC,33.4 µM
same,TGI,K-562 leukemia,12.4 µM
same,TGI,MALME-3M melanoma,4.31 µM
same,TGI,NCI-H460 lung,29.2 µM
same,TGI,NCI-H522 lung,18.5 µM
same,TGI,SN12C renal,45.5 µM
same,TGI,SNB-75 CNS,24 µM
same,TGI,SW-620 colon,16.2 µM
same,TGI,U251 CNS,16.6 µM
C#CCOc1cccc(Nc2ncnc3cc(NC(=O)CCl)ccc23)c1,GI50,ACHN renal,4.9 µM
same,TGI,ACHN renal,18 µM
same,GI50,HOP-92 NSCLC,12.4 µM
same,TGI,HOP-92 NSCLC,27.3 µM
same,GI50,K-562 leukemia,0.628 µM
same,TGI,K-562 leukemia,4.69 µM
same,GI50,MALME-3M melanoma,5.21 µM
same,TGI,MALME-3M melanoma,20.5 µM
same,GI50,NCI-H460 lung,3.64 µM
same,TGI,NCI-H460 lung,12.1 µM
same,GI50,NCI-H522 lung,1.46 µM
same,TGI,NCI-H522 lung,3.34 µM
same,GI50,SN12C renal,4.1 µM
same,TGI,SN12C renal,17.3 µM
same,GI50,SW-620 colon,1.23 µM
same,TGI,SW-620 colon,3.25 µM
same,GI50,U251 CNS,2.13 µM
same,TGI,U251 CNS,4.78 µM
O=C(O)CCc1nn2c(nc1=O)sc1ccc3ccccc3c12,TGI,ACHN renal,> 100 µM
same,TGI,HOP-92 NSCLC,> 100 µM
same,TGI,K-562 leukemia,> 100 µM
same,TGI,MALME-3M melanoma,> 100 µM
same,TGI,NCI-H460 lung,> 100 µM
same,TGI,SN12C renal,> 100 µM
same,TGI,SNB-75 CNS,> 100 µM
same,TGI,SW-620 colon,> 100 µM
same,TGI,U251 CNS,> 100 µM
N#C/C(=C\c1ccc(Br)cc1)n1nnc2ccc(F)cc21,GI50,ACHN renal,0.671 µM
same,TGI,ACHN renal,2.06 µM
same,GI50,K-562 leukemia,0.332 µM
same,TGI,K-562 leukemia,> 100 µM
same,GI50,MALME-3M melanoma,1.44 µM
same,TGI,MALME-3M melanoma,4.68 µM
same,GI50,NCI-H460 lung,2.26 µM
same,TGI,NCI-H460 lung,5.33 µM
same,GI50,NCI-H522 lung,0.227 µM
same,TGI,NCI-H522 lung,0.858 µM
same,GI50,SN12C renal,1.72 µM
same,TGI,SN12C renal,4.37 µM
same,TGI,SNB-75 CNS,2.24 µM
same,GI50,SW-620 colon,0.447 µM
same,TGI,SW-620 colon,2.34 µM
same,GI50,U251 CNS,1.64 µM
same,TGI,U251 CNS,3.34 µM
